The supplement of paper PMC10883282
± gives the standard deviation of the averaged measurements.

System: HT1080
Assay: relative viability vs DMSO control (72 h) (fraction); higher = more viable cells
Procedure, shortened: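 Densities for seeding sarcoma cell lines into 384-well plates were set to give 80–90% confluence. After 24 h, 2.5 µl of serially diluted compound from source plates of 10 mM to 0.0002 mM went in, and plates stayed 72 h at 37 °C in 5% CO2 with 0.1% DMSO vehicle and a 5 µM positive control. Percent growth from ATPLite readings, averaged over up to triplicate wells, served as relative viability, rescaled so 1 means full and 0 means none.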

Row | SMILES | relative viability (0.00017 µM) | relative viability (0.00051 µM) | relative viability (0.00152 µM) | relative viability (0.00457 µM) | relative viability (0.01372 µM) | relative viability (0.04115 µM) | relative viability (0.1235 µM) | relative viability (0.3704 µM) | relative viability (1.111 µM) | relative viability (3.333 µM) | relative viability (10 µM)
1 | Cc1ccc(F)c(NC(=O)Nc2ccc(-c3cccc4[nH]nc(N)c34)cc2)c1 [Linifanib] | 1.08 ± 0.022 | 1.08 ± 0.026 | 1.07 ± 0.017 | 1.033 ± 0.0064 | 1.06 ± 0.02 | 1.07 ± 0.037 | 1.048 ± 0.0077 | 1.08 ± 0.0094 | 1.08 ± 0.031 | 1.08 ± 0.03 | 1.05 ± 0.015
2 | CNC(=O)c1ccc(-c2cnc3ncc(Cc4ccc5ncccc5c4)n3n2)cc1F [Capmatinib] | 1.06 ± 0.022 | 1.06 ± 0.041 | 1.06 ± 0.018 | 1.06 ± 0.014 | 1.06 ± 0.012 | 1.04 ± 0.019 | 1.05 ± 0.014 | 1.05 ± 0.028 | 1.044 ± 0.01 | 0.989 ± 0.015 | 1.005 ± 0.0012
3 | CN1CCC(COc2cnc(-c3cccc(Cn4nc(-c5cccc(C#N)c5)ccc4=O)c3)nc2)CC1 [Tepotinib] | 1.1 ± 0.066 | 1.09 ± 0.025 | 1.12 ± 0.013 | 1.081 ± 0.0059 | 1.092 ± 0.0041 | 1.07 ± 0.016 | 1.07 ± 0.043 | 1.07 ± 0.059 | 1.04 ± 0.034 | 1.032 ± 0.0023 | 0.8618 ± 0.0058
4 | N#CC[C@H](C1CCCC1)n1cc(-c2ncnc3[nH]ccc23)cn1 [Ruxolitinib] | 1.04 ± 0.037 | 1.034 ± 0.0099 | 1.07 ± 0.012 | 1.05 ± 0.068 | 1.06 ± 0.049 | 1.03 ± 0.017 | 1.05 ± 0.027 | 1.04 ± 0.04 | 1.04 ± 0.021 | 1.04 ± 0.035 | 1.02 ± 0.087
5 | CC(C)(C)c1cc(NC(=O)Nc2ccc(-c3cn4c(n3)sc3cc(OCCN5CCOCC5)ccc34)cc2)no1 [Quizartinib] | 1.12 ± 0.013 | 1.09 ± 0.016 | 1.087 ± 0.0076 | 1.08 ± 0.029 | 1.07 ± 0.014 | 1.11 ± 0.034 | 1.1 ± 0.035 | 1.11 ± 0.012 | 1.04 ± 0.042 | 0.907 ± 0.048 | 0.806 ± 0.042
6 | COc1c(OCCCN2CCOCC2)ccc2c1N=C(NC(=O)c1cnc(N)nc1)N1CCN=C21 [Copanlisib] | 1.15 ± 0.059 | 1.14 ± 0.034 | 1.12 ± 0.04 | 1.111 ± 0.0021 | 1.1 ± 0.017 | 1.12 ± 0.016 | 1.08 ± 0.034 | 0.964 ± 0.026 | 0.65405 ± 0.00049 | 0.342 ± 0.022 | 0.224 ± 0.025
7 | Cc1ccc(NC(=O)c2ccc(CN3CCN(C)CC3)cc2)cc1Nc1nc(-c2cccnc2)cs1 [Masitinib] | 1.02 ± 0.029 | 1.06 ± 0.022 | 1.06 ± 0.0062 | 1.08 ± 0.033 | 1.05 ± 0.019 | 1.06 ± 0.021 | 1.03 ± 0.032 | 1.02 ± 0.044 | 0.89 ± 0.02 | 0.642 ± 0.06 | 0.177 ± 0.012
8 | Cn1cc(-c2cc3c(N4CCN(c5ncc([C@@](C)(N)c6ccc(F)cc6)cn5)CC4)ncnn3c2)cn1 [Avapritinib] | 0.967 ± 0.065 | 1.03 ± 0.019 | 0.98 ± 0.042 | 1.01 ± 0.041 | 1 ± 0.017 | 1.01 ± 0.039 | 1.03 ± 0.048 | 1.01 ± 0.013 | 0.908 ± 0.029 | 0.905 ± 0.014 | 0.826 ± 0.023
9 | O=C(Cc1ccc(-c2ccc(OCCN3CCOCC3)cc2)cn1)NCc1ccccc1 [KX2-391] | 1.07 ± 0.025 | 1.1 ± 0.013 | 1.11 ± 0.019 | 1.1 ± 0.033 | 1.06 ± 0.013 | 1.06 ± 0.022 | 0.117 ± 0.0064 | 0.0565 ± 0.0006 | 0.0434 ± 0.0068 | 0.0333 ± 0.0026 | 0.0365 ± 0.0027
10 | CO[C@H]1C[C@@H]2CC[C@@H](C)[C@@](O)(O2)C(=O)C(=O)N2CCCC[C@H]2C(=O)O[C@H]([C@H](C)C[C@@H]2CC[C@@H](OP(C)(C)=O)[C@H](OC)C2)CC(=O)[C@H](C)/C=C(\C)[C@@H](O)[C@@H](OC)C(=O)[C@H](C)C[C@H](C)/C=C/C=C/C=C/1C [Ridaforolimus] | 1.1 ± 0.019 | 1.08 ± 0.02 | 1.13 ± 0.047 | 1.08 ± 0.03 | 1.03 ± 0.011 | 0.99 ± 0.028 | 0.983 ± 0.034 | 0.9952 ± 0.0077 | 0.9672 ± 0.0023 | 0.9615 ± 0.0033 | 0.934 ± 0.028
11 | CCc1cc2c(cc1N1CCC(N3CCOCC3)CC1)C(C)(C)c1[nH]c3cc(C#N)ccc3c1C2=O [Alectinib] | 1.07 ± 0.018 | 1.09 ± 0.0051 | 1.06 ± 0.032 | 1.09 ± 0.014 | 1.077 ± 0.0047 | 1.11 ± 0.045 | 1.08 ± 0.02 | 1.11 ± 0.028 | 1.07 ± 0.024 | 1.07 ± 0.047 | 1.02 ± 0.051
12 | C[C@@H](c1ccc2nccn2c1)n1nnc2ncc(-c3cnn(C)c3)nc21 [Volitinib] | 1.02 ± 0.043 | 1.06 ± 0.016 | 1.07 ± 0.02 | 1.06 ± 0.031 | 1.06 ± 0.029 | 1.04 ± 0.011 | 1.02 ± 0.022 | 1.05 ± 0.034 | 1.06 ± 0.012 | 0.992 ± 0.016 | 0.948 ± 0.053
13 | CC1(C)CNc2cc(NC(=O)c3cccnc3NCc3ccncc3)ccc21 [Motesanib] | 1.03 ± 0.036 | 0.975 ± 0.032 | 1.03 ± 0.016 | 1.03 ± 0.023 | 1.04 ± 0.041 | 1 ± 0.04 | 1.02 ± 0.0035 | 0.98 ± 0.012 | 1.01 ± 0.018 | 0.9961 ± 0.0086 | 0.976 ± 0.015
14 | CN1CCN(c2ccc3nc(-c4c(N)c5c(F)cccc5[nH]c4=O)[nH]c3c2)CC1 [Dovitinib] | 1.1 ± 0.047 | 1.09 ± 0.053 | 1.05 ± 0.046 | 1.1 ± 0.028 | 1.09 ± 0.013 | 1.095 ± 0.0071 | 1.11 ± 0.023 | 1.155 ± 0.0091 | 0.975 ± 0.017 | 0.632 ± 0.023 | 0.154 ± 0.08
15 | CNC(=O)c1cc(Oc2ccc(NC(=O)Nc3ccc(Cl)c(C(F)(F)F)c3)c(F)c2)ccn1 [Regorafenib] | 1.1 ± 0.055 | 1.128 ± 0.0073 | 1.09 ± 0.012 | 1.09 ± 0.012 | 1.12 ± 0.028 | 1.11 ± 0.056 | 1.1 ± 0.02 | 1.08 ± 0.021 | 1.05 ± 0.014 | 0.952 ± 0.028 | 0.542 ± 0.062
16 | Cc1nc(NC(=O)N2CCC[C@H]2C(N)=O)sc1-c1ccnc(C(C)(C)C(F)(F)F)c1 [Alpelisib] | 1.06 ± 0.032 | 1.05 ± 0.027 | 1.05 ± 0.022 | 1.08 ± 0.031 | 1.01 ± 0.014 | 1.04 ± 0.018 | 1 ± 0.023 | 1.02 ± 0.037 | 0.994 ± 0.03 | 0.977 ± 0.034 | 0.889 ± 0.016
17 | CCN1CCN(Cc2ccc(Nc3ncc(F)c(-c4cc(F)c5nc(C)n(C(C)C)c5c4)n3)nc2)CC1 [Abemaciclib] | 1.05 ± 0.0085 | 1.05 ± 0.034 | 1.06 ± 0.018 | 1.08 ± 0.034 | 1.06 ± 0.011 | 1.07 ± 0.018 | 1.13 ± 0.053 | 1.18 ± 0.045 | 1.15 ± 0.055 | 1.07 ± 0.045 | 0.926 ± 0.063
18 | CC[C@H](Nc1ncnc2[nH]cnc12)c1nc2cccc(F)c2c(=O)n1-c1ccccc1 [Idelalisib] | 1.1 ± 0.032 | 1.1 ± 0.025 | 1.07 ± 0.017 | 1.12 ± 0.039 | 1.0913 ± 0.00051 | 1.12 ± 0.021 | 1.09 ± 0.038 | 1.12 ± 0.051 | 1.07 ± 0.027 | 1.08 ± 0.014 | 1.08 ± 0.04
19 | C=CC(=O)N1CCC[C@@H](n2nc(-c3ccc(Oc4ccccc4)cc3)c3c(N)ncnc32)C1 [Ibrutinib] | 1.07 ± 0.019 | 1.11 ± 0.019 | 1.1 ± 0.012 | 1.05 ± 0.012 | 1.1 ± 0.022 | 1.06 ± 0.055 | 1.06 ± 0.015 | 1.07 ± 0.025 | 1.12 ± 0.027 | 1.14 ± 0.022 | 1.101 ± 0.0017
